From patent US20250352520A1, “USE OF DEXPRAMIPEXOLE FOR THE TREATMENT OF EOSINOPHILIC COPD” (Areteia Therapeutics, Inc., priority 2024, published 2025)

Conditions: Week 16; <50% AEC reduction at Week 16

SMILES: CCCN[C@@H]1CCc2nc(N)sc2C1 [Dexpramipexole, (6R)-2-amino-4,5,6,7-tetrahydro-6-(propylamino)benzothiazole]
- Pre-BD FEF25-75 % change from baseline, Max: −3%
- Pre-BD FEF25-75 % change from baseline, Mean ± SD: −14.5 ± 19.68%
- Pre-BD FEF25-75 % change from baseline, Median: −5.5%
- Pre-BD FEF25-75 % change from baseline, Min: −44%
- Pre-BD FEF25-75 % change from baseline, Q1: −25%
- Pre-BD FEF25-75 % change from baseline, Q3: −4%
- Pre-BD FEF25-75 Observed, Max: 780 mL/s
- Pre-BD FEF25-75 Observed, Mean ± SD: 505.0 ± 266.15 mL/s
- Pre-BD FEF25-75 Observed, Median: 505.0 mL/s
- Pre-BD FEF25-75 Observed, Min: 230 mL/s
- Pre-BD FEF25-75 Observed, Q1: 280 mL/s
- Pre-BD FEF25-75 Observed, Q3: 730 mL/s
- Pre-BD FEF25-75 change from baseline, Max: -10 mL/s
- Pre-BD FEF25-75 change from baseline, Mean ± SD: -170.0 ± 293.94 mL/s
- Pre-BD FEF25-75 change from baseline, Median: -30.0 mL/s
- Pre-BD FEF25-75 change from baseline, Min: -610 mL/s
- Pre-BD FEF25-75 change from baseline, Q1: -330 mL/s
- Pre-BD FEF25-75 change from baseline, Q3: -10 mL/s
- Pre-BD FEV1 % change from baseline, Max: 3%
- Pre-BD FEV1 % change from baseline, Mean ± SD: −11.4 ± 15.14%
- Pre-BD FEV1 % change from baseline, Median: −8.5%
- Pre-BD FEV1 % change from baseline, Min: −32%
- Pre-BD FEV1 % change from baseline, Q1: −22%
- Pre-BD FEV1 % change from baseline, Q3: 0%
- Pre-BD FEV1 Observed, Max: 1660 mL
- Pre-BD FEV1 Observed, Mean ± SD: 1280.0 ± 399.67 mL
- Pre-BD FEV1 Observed, Median: 1370.0 mL
- Pre-BD FEV1 Observed, Min: 720 mL
- Pre-BD FEV1 Observed, Q1: 1020 mL
- Pre-BD FEV1 Observed, Q3: 1540 mL
- Pre-BD FEV1 change from baseline, Max: 50 mL
- Pre-BD FEV1 change from baseline, Mean ± SD: -192.5 ± 318.58 mL
- Pre-BD FEV1 change from baseline, Median: -80.0 mL
- Pre-BD FEV1 change from baseline, Min: -660 mL
- Pre-BD FEV1 change from baseline, Q1: -385 mL
- Pre-BD FEV1 change from baseline, Q3: 0 mL
- Pre-BD FVC % change from baseline, Max: 3%
- Pre-BD FVC % change from baseline, Mean ± SD: −3.2 ± 7.22%
- Pre-BD FVC % change from baseline, Median: −2.0%
- Pre-BD FVC % change from baseline, Min: −12%
- Pre-BD FVC % change from baseline, Q1: −9%
- Pre-BD FVC % change from baseline, Q3: 3%
- Pre-BD FVC Observed, Max: 3380 mL
- Pre-BD FVC Observed, Mean ± SD: 2900.0 ± 503.26 mL
- Pre-BD FVC Observed, Median: 2985.0 mL
- Pre-BD FVC Observed, Min: 2250 mL
- Pre-BD FVC Observed, Q1: 2510 mL
- Pre-BD FVC Observed, Q3: 3290 mL
- Pre-BD FVC change from baseline, Max: 80 mL
- Pre-BD FVC change from baseline, Mean ± SD: -95.0 ± 203.55 mL
- Pre-BD FVC change from baseline, Median: -80.0 mL
- Pre-BD FVC change from baseline, Min: -300 mL
- Pre-BD FVC change from baseline, Q1: -270 mL
- Pre-BD FVC change from baseline, Q3: 80 mL
- Pre-BD Peak Flow % change from baseline, Max: 930%
- Pre-BD Peak Flow % change from baseline, Mean ± SD: 236.0 ± 462.72%
- Pre-BD Peak Flow % change from baseline, Median: 8.1%
- Pre-BD Peak Flow % change from baseline, Min: −2%
- Pre-BD Peak Flow % change from baseline, Q1: 1%
- Pre-BD Peak Flow % change from baseline, Q3: 471%
- Pre-BD Peak Flow Observed, Max: 412 L/min
- Pre-BD Peak Flow Observed, Mean ± SD: 258.0 ± 118.14 L/min
- Pre-BD Peak Flow Observed, Median: 248.0 L/min
- Pre-BD Peak Flow Observed, Min: 124 L/min
- Pre-BD Peak Flow Observed, Q1: 186 L/min
- Pre-BD Peak Flow Observed, Q3: 331 L/min
- Pre-BD Peak Flow change from baseline, Max: 372 L/min
- Pre-BD Peak Flow change from baseline, Mean ± SD: 101.5 ± 180.70 L/min
- Pre-BD Peak Flow change from baseline, Median: 18.5 L/min
- Pre-BD Peak Flow change from baseline, Min: -3 L/min
- Pre-BD Peak Flow change from baseline, Q1: 5 L/min
- Pre-BD Peak Flow change from baseline, Q3: 199 L/min
